Tests used:
[1] = Microsome stability in pooled mouse liver microsomes; format: in vitro ADME; conditions: 3 μM compound, 0.5 mg/mL microsome protein, 1 mM NADPH; for microsomal CLint at 3 μM: in vitro intrinsic clearance, N=3, read-out: CLint (μL/minutes/mg protein)
Method: Microsome stability was determined in pooled mouse liver microsomes. Test compound (3 μM final concentration) along with 0.5 mg/mL microsome protein and 1 mM NADPH was incubated for 0, 5, 15, 30 and 60 minutes. Incubation of test compound and microsomes in the absence of NADPH served as a negative control. The samples were quenched with methanol and centrifuged for 20 minutes at 2500 rpm to precipitate proteins. Sample supernatants were analyzed (N=3) by LC/MS. The In peak area ratio (compound peak area/internal standard peak area) was plotted against time and the slope of the line determined to give the elimination rate constant [k=(−1)(slope)]. The half life (t1/2 in minutes), and the in vitro intrinsic clearance (CLint in μL/min/mg protein) were calculated according to the following equations, where V=incubation volume in μL/mg protein: […]

[2] = system: FADD-deficient variant of human Jurkat T cells; test: Necroptosis inhibition in FADD-deficient Jurkat T cells treated with TNF-α, ATP-based viability; format: cell-based; conditions: for EC50: Jurkat, 10 ng/mL human TNF-α, 24 hours; for necroptosis inhibitory activity in words: TNF-α treated FADD-deficient Jurkat T cells
Method: Stock solutions (30 mM) in DMSO were initially prepared and then diluted with DMSO to give testing solutions, which were added to each test well. The final DMSO concentration was 0.5%. Eleven compound test concentrations (0.030-100 μM) were used. Each concentration was done in duplicate.
Cell viability assessments were performed using a commercial luminescent ATP-based assay kit (CellTiter-Glo, Promega, Madison, Wis.) according to the manufacturer's instructions. Briefly, 40 μL of the cell lysis/ATP detection reagent was added to each well. Plates were incubated on a rocking platform for 10 minutes at room temperature and luminescence was measured using a Wallac Victor 3 plate-reader (Perkin Elmer, Wellesley, Mass.). Cell viability was expressed as a ratio of the signal in the well treated with TNF-α and compound to the signal in the well treated with compound alone. […] EC50 values were calculated using nonlinear regression analysis of sigmoid dose-response (variable slope) curves from plots of log[I] verses viability values.

[3] = Table 2, Formula (I-a), standard deviation <10%

| Structure (SMILES) | EC50 ([2]; Table 5, pyrrole compounds) [µM] | EC50 [2, 3] [µM] | further results |
| --- | --- | --- | --- |
| C[C@H](NC(=O)c1ccc(C#N)n1C)c1c(F)cccc1Cl [Compound 97] |  |  | half-life at 3 μM [1]: 236 min; microsomal CLint at 3 μM [1]: 5.9 ± 2.5 µL/min/mg |
| Cn1c(C#N)ccc1C(=O)NCc1c(F)cccc1Cl [Compound 94] | 0.34 |  | half-life at 3 μM [1]: 42.3 min; microsomal CLint at 3 μM [1]: 32.8 ± 2.2 µL/min/mg |
| Cn1cc(C#N)cc1C(=O)NCc1c(F)cccc1Cl [Compound 98] | > 20 |  |  |
| O=C(NCc1c(F)cccc1Cl)c1snnc1C1CCC1 [Compound 33] |  | 0.6 |  |
| CC(C)(C)c1nnsc1C(=O)NCc1c(F)cccc1Cl [Compound 36] |  | 18 |  |
| O=C(NCc1c(F)cccc1F)c1snnc1C1CC1 [Compound 39] |  | 1.5 |  |
| Cc1ccn(C(C)C)c1C(=O)NCc1c(F)cccc1Cl [Compound 83] | 7.8 |  |  |
| Fc1cccc(Cl)c1CNCc1snnc1C1CC1 [Compound 13] |  |  | EC50 ([2]; Table 3, Formula (I-b)): > 100 µM; necroptosis inhibitory activity in words [2]: inactive |
| CC(C)n1cccc1C(=O)NCc1c(F)cccc1Cl [Compound 85] | 0.44 |  |  |
| CCn1c(Br)ccc1C(=O)NCc1c(F)cccc1Cl [Compound 93] | 2.4 |  |  |
| CCn1c(C#N)ccc1C(=O)NCc1c(F)cccc1Cl [Compound 95] | 1.9 |  |  |
| O=C(NCc1ccccc1F)c1snnc1C1CC1 [Compound 40] |  | 1.5 |  |
| O=C(NCc1c(F)cccc1Cl)c1ccc[nH]1 [Compound 80] | > 20 |  |  |
| Cc1cccc(Cl)c1CNC(=O)c1snnc1C1CC1 [Compound 41] |  | 10 |  |
| O=C(NCc1c(F)cccc1Cl)c1snnc1-c1ccccc1 [Compound 37] |  | > 100 |  |
| CC(C)n1cc(C#N)cc1C(=O)NCc1c(F)cccc1Cl [Compound 99] | > 20 |  |  |
| CC(C)n1c(C#N)ccc1C(=O)NCc1c(F)cccc1Cl [Compound 96] | 1.4 |  |  |

| Structure (SMILES) | EC50 ([2]; Table 5, pyrrole compounds) [µM] | EC50 [2, 3] [µM] | further results |
| --- | --- | --- | --- |
| O=C(NCc1cccc2ccccc12)c1snnc1C1CC1 [Compound 45] |  | > 100 |  |
| O=C(NCc1c(F)cccc1Cl)c1snnc1C1CCCC1 [Compound 34] |  | 1.9 |  |
| CC(C)n1cccc1C(=O)N[C@@H](C)c1c(F)cccc1Cl [Compound 90] | 0.52 |  |  |
| CN(Cc1c(F)cccc1Cl)C(=O)c1cccn1C [Compound 88] | > 20 |  |  |
| O=C(NCc1c(F)cccc1C(F)(F)F)c1snnc1C1CC1 [Compound 44] |  | > 100 |  |
| Cc1ccn(C)c1C(=O)NCc1c(F)cccc1Cl [Compound 82] | > 20 |  |  |
| O=C(NC(=O)c1c(F)cccc1Cl)c1snnc1C1CC1 [Compound 16] |  |  | EC50 ([2]; Table 3, Formula (I-b)): > 100 µM; necroptosis inhibitory activity in words [2]: inactive |
| CC(C)n1cccc1C(=O)N[C@H](C)c1c(F)cccc1Cl [Compound 91] | > 20 |  |  |
| Cc1cc[nH]c1C(=O)NCc1c(F)cccc1Cl [Compound 81] | 4.9 |  |  |
| O=C(NCc1c(F)cccc1Cl)c1snnc1C1CCCCC1 [Compound 35] |  | 6 |  |
| CC(NC(=O)c1cccn1C(C)C)c1c(F)cccc1Cl (racemic) [Compound 89] | 2.1 |  |  |
| Cn1c(Cl)ccc1C(=O)NCc1c(F)cccc1Cl [Compound 78] | 0.74 |  | half-life at 3 μM [1]: 15.4 min; microsomal CLint at 3 μM [1]: 89.8 ± 3 µL/min/mg |
| O=C(NCc1c(F)cccc1Cl)c1cccn1Cc1ccccc1 [Compound 86] | > 20 |  |  |
| CCCCC(NC(=O)c1cccn1C(C)C)c1c(F)cccc1Cl (racemic) [Compound 92] | > 20 |  |  |
| CC(c1ccccc1)n1cccc1C(=O)NCc1c(F)cccc1Cl (stereo not drawn) [Compound 87] | > 20 |  |  |
| Cn1cccc1C(=O)NCc1c(F)cccc1Cl [Compound 84] | 0.9 |  | half-life at 3 μM [1]: 17.2 min; microsomal CLint at 3 μM [1]: 80.6 ± 4.4 µL/min/mg |
